# Data from article PMC5047949, “Kinetic analysis of the translocator protein positron emission tomography ligand [^18F]GE-180 in the human brain” (European Journal of Nuclear Medicine and Molecular Imaging, 2016).
# Key:
# [1] = pH 7.4; preclinical work; cited from earlier work
# [2] = Safety and tolerability after radioligand administration; assay type: in vivo, human
# Description: With regard to correlations between age and the principal outcome measure, there were no significant correlations between age and VT in either HABs and MABs in any of the ROIs studied (Spearman’s rho = −0.3 – 0.7 p = 0.188 – 0.873 in HABs; Spearman’s rho = 0.1 – 0.8, p = 0.104 – 0.94 in MABs). There were also no significant relationships between age and outcome measures when added as a covariate in the repeated measures ANOVA. Demographic data are provided in Supplementary Table 1.
# [3] = system: translocator protein (TSPO); test: Dynamic [^18F]GE-180 brain PET with arterial input; 1TC, 2TC and Logan kinetic modelling; assay type: in vivo, human; settings: for Distribution volume ratio: cortical grey matter pseudoreference, median (IQR); for K1 / VT / k2 / k3 / k4: median (interquartile range)
# Protocol: PET studies were performed on a Biograph 6 (six-slice CT) scanner after administration of 182 ± 3.1 MBq via intravenous bolus injection over 10 s followed by a 10-mL saline flush. A low-dose CT scan preceded the PET acquisition to allow correction for tissue attenuation. Emission data were then acquired over 90 min in list mode and reconstructed as 24 temporal frames (6 × 15, 3 × 60, 5 × 120, 5 × 300, 5 × 600 s) using filtered back-projection (matrix size 168 × 168, zoom 2.6, 5-mm gaussian filter, pixel size 1.56 × 1.56, slice thickness 3 mm) with and without attenuation correction. Standard corrections for scatter, decay and random counts were applied.
# We used the PET data analysis and kinetic modelling toolkit, MIAKAT™ (www.miakat.org), which incorporates software from SPM5 (Wellcome Trust Centre for Neuroimaging) and FSL (FMRIB, University of Oxford). The brain was initially extracted from the T1-weighted MR images. The CIC neuroanatomical atlas was nonlinearly registered to the individual’s extracted brain in order to generate a personalized set of anatomically parcellated regions. Frame-by-frame motion correction of the dynamic (without attenuation correction) PET data was performed using mutual information coregistration of the individual frames to a reference frame. An average motion-corrected PET image was generated and used for coregistration with the T1-weighted MR image. Finally, regional tissue time–activity curves (TACs) were generated for each region of interest (ROI) defined from the CIC atlas that had been transformed into each individual’s image space.
# Datasets were analysed with a one-tissue compartment (1TC) model and a two-tissue compartment (2TC) model and the Logan graphical method, using the metabolite-corrected plasma input function as previously described with a fixed 5 % blood volume correction. The primary outcome measures were the radioligand delivery rate constant (K1; mL cm^−3 min^−1), total distribution volume (VT: mL cm^−3), and standardized uptake values (SUV). The SUV ratio (SUVR) and distribution volume ratio (DVR) were estimated using the cortical grey matter as a pseudo reference region.
# To investigate the stability of VT over different scan durations, a time stability analysis was performed by analysing data for total time windows that ranged between 40 and 90 min in 10-min increments.
# [4] = set-up: method as in PMID 26072270; settings: 60 min; earlier preclinical work; cited from earlier work
# [5] = humans; in vitro work, not measured in this study; cited from earlier work
# [6] = 2TC-fix model, across all regions and subjects
# [7] = Logan graphical method, Cerebellum
# [8] = Logan graphical method, Frontal lobe
# [9] = Logan graphical method, Occipital lobe
# [10] = Logan graphical method, Parietal lobe
# [11] = Logan graphical method, Striatum
# [12] = Logan graphical method, Temporal lobe
# [13] = Logan graphical method, Thalamus
smiles,measurement,setting,value
CCN(CC)C(=O)[C@H]1CCCc2c1c1c(OC)cccc1n2CC[18F] [[^18F]GE-180],logD,[1],2.95
same,safety of tracer administration,[2]; healthy subjects,safe
same,pharmacological effects after injection,"[2]; patient reports, blood pressure, pulse, respiration rate, oxygen saturation",no pharmacological effects
same,Distribution volume ratio,"[3]; 1TC model, Cerebellum",0.968 (0.91 – 1)
same,K1,"[3]; 1TC model, Cerebellum",0.00656 (0.0054 – 0.0076) mL/min
same,VT,"[3]; 1TC model, Cerebellum",0.178 (0.16 – 0.22) mL/cm^3
same,k2,"[3]; 1TC model, Cerebellum",0.0339 (0.034 – 0.034) /min
same,Distribution volume ratio,"[3]; 1TC model, Frontal lobe",0.939 (0.94 – 0.95)
same,K1,"[3]; 1TC model, Frontal lobe",0.00472 (0.0041 – 0.006) mL/min
same,VT,"[3]; 1TC model, Frontal lobe",0.171 (0.15 – 0.22) mL/cm^3
same,k2,"[3]; 1TC model, Frontal lobe",0.0271 (0.023 – 0.028) /min
same,Distribution volume ratio,"[3]; 1TC model, Occipital lobe",1.12 (1.1 – 1.2)
same,K1,"[3]; 1TC model, Occipital lobe",0.00621 (0.0057 – 0.0074) mL/min
same,VT,"[3]; 1TC model, Occipital lobe",0.214 (0.19 – 0.25) mL/cm^3
same,k2,"[3]; 1TC model, Occipital lobe",0.03 (0.025 – 0.032) /min
same,Distribution volume ratio,"[3]; 1TC model, Parietal lobe",0.969 (0.96 – 1)
same,K1,"[3]; 1TC model, Parietal lobe",0.00513 (0.004 – 0.0061) mL/min
same,VT,"[3]; 1TC model, Parietal lobe",0.19 (0.16 – 0.22) mL/cm^3
same,k2,"[3]; 1TC model, Parietal lobe",0.027 (0.024 – 0.028) /min
same,Distribution volume ratio,"[3]; 1TC model, Striatum",0.826 (0.78 – 0.89)
same,K1,"[3]; 1TC model, Striatum",0.00358 (0.003 – 0.0046) mL/min
same,VT,"[3]; 1TC model, Striatum",0.155 (0.14 – 0.2) mL/cm^3
same,k2,"[3]; 1TC model, Striatum",0.0241 (0.021 – 0.025) /min
same,K1,"[3]; 1TC model, Temporal lobe",0.00514 (0.0048 – 0.006) mL/min
same,VT,"[3]; 1TC model, Temporal lobe",0.182 (0.17 – 0.24) mL/cm^3
same,k2,"[3]; 1TC model, Temporal lobe",0.0266 (0.025 – 0.028) /min
same,Distribution volume ratio,"[3]; 1TC model, Thalamus",1.03 (0.96 – 1.1)
same,K1,"[3]; 1TC model, Thalamus",0.00555 (0.0046 – 0.0058) mL/min
same,VT,"[3]; 1TC model, Thalamus",0.182 (0.17 – 0.24) mL/cm^3
same,k2,"[3]; 1TC model, Thalamus",0.0261 (0.024 – 0.028) /min
same,Distribution volume ratio,"[3]; 2TC model, Cerebellum",0.916 (0.69 – 0.98)
same,K1,"[3]; 2TC model, Cerebellum",0.0224 (0.016 – 1.3) mL/min
same,VT,"[3]; 2TC model, Cerebellum",0.281 (0.25 – 0.33) mL/cm^3
same,k2,"[3]; 2TC model, Cerebellum",0.319 (0.23 – 78) /min
same,k3,"[3]; 2TC model, Cerebellum",0.0331 (0.029 – 0.091) /min
same,k4,"[3]; 2TC model, Cerebellum",0.0113 (0.0084 – 0.018) /min
same,Distribution volume ratio,"[3]; 2TC model, Frontal lobe",0.984 (0.96 – 1.2)
same,K1,"[3]; 2TC model, Frontal lobe",0.0102 (0.0089 – 0.013) mL/min
same,VT,"[3]; 2TC model, Frontal lobe",0.346 (0.26 – 0.5) mL/cm^3
same,k2,"[3]; 2TC model, Frontal lobe",0.195 (0.15 – 1.6) /min
same,k3,"[3]; 2TC model, Frontal lobe",0.0301 (0.024 – 0.15) /min
same,k4,"[3]; 2TC model, Frontal lobe",0.00653 (0.004 – 0.017) /min
same,Distribution volume ratio,"[3]; 2TC model, Occipital lobe",1.07 (0.97 – 1.1)
same,K1,"[3]; 2TC model, Occipital lobe",0.0238 (0.019 – 0.031) mL/min
same,VT,"[3]; 2TC model, Occipital lobe",0.35 (0.3 – 0.52) mL/cm^3
same,k2,"[3]; 2TC model, Occipital lobe",0.385 (0.2 – 0.62) /min
same,k3,"[3]; 2TC model, Occipital lobe",0.0395 (0.036 – 0.054) /min
same,k4,"[3]; 2TC model, Occipital lobe",0.0101 (0.0062 – 0.014) /min
same,Distribution volume ratio,"[3]; 2TC model, Parietal lobe",1.01 (0.98 – 1.1)
same,K1,"[3]; 2TC model, Parietal lobe",0.0116 (0.011 – 0.014) mL/min
same,VT,"[3]; 2TC model, Parietal lobe",0.33 (0.31 – 0.42) mL/cm^3
same,k2,"[3]; 2TC model, Parietal lobe",0.192 (0.15 – 0.25) /min
same,k3,"[3]; 2TC model, Parietal lobe",0.0334 (0.025 – 0.039) /min
same,k4,"[3]; 2TC model, Parietal lobe",0.00873 (0.0045 – 0.014) /min
same,Distribution volume ratio,"[3]; 2TC model, Striatum",0.451 (0.41 – 0.71)
same,K1,"[3]; 2TC model, Striatum",0.00413 (0.0033 – 0.0088) mL/min
same,VT,"[3]; 2TC model, Striatum",0.155 (0.14 – 0.22) mL/cm^3
same,k2,"[3]; 2TC model, Striatum",1.14 (0.66 – 1.7) /min
same,k3,"[3]; 2TC model, Striatum",4.89 (0.62 – 9.1) /min
same,k4,"[3]; 2TC model, Striatum",0.14 (0.027 – 0.21) /min
same,Distribution volume ratio,"[3]; 2TC model, Temporal lobe",0.958 (0.93 – 1)
same,K1,"[3]; 2TC model, Temporal lobe",0.0143 (0.012 – 0.032) mL/min
same,VT,"[3]; 2TC model, Temporal lobe",0.306 (0.27 – 0.42) mL/cm^3
same,k2,"[3]; 2TC model, Temporal lobe",0.217 (0.16 – 1.3) /min
same,k3,"[3]; 2TC model, Temporal lobe",0.0348 (0.03 – 0.15) /min
same,k4,"[3]; 2TC model, Temporal lobe",0.00927 (0.0063 – 0.016) /min
same,Distribution volume ratio,"[3]; 2TC model, Thalamus",0.922 (0.81 – 1.1)
same,K1,"[3]; 2TC model, Thalamus",0.0118 (0.011 – 0.014) mL/min
same,VT,"[3]; 2TC model, Thalamus",0.376 (0.28 – 0.41) mL/cm^3
same,k2,"[3]; 2TC model, Thalamus",0.16 (0.14 – 0.2) /min
same,k3,"[3]; 2TC model, Thalamus",0.0315 (0.026 – 0.042) /min
same,k4,"[3]; 2TC model, Thalamus",0.00881 (0.0062 – 0.012) /min
same,average regional delivery rate constant (K1),"[3]; 2TC model, healthy subjects",0.01 mL cm^−3 min^−1
same,"K1, average",[3]; [6],0.013 mL cm^−3 min^−1
same,"VT, average",[3]; [6],0.311 mL cm^−3
same,"k2, average",[3]; [6],0.229 min⁻¹
same,"k3, average",[3]; [6],0.035 min⁻¹
same,"k4, average",[3]; [6],0.010 min⁻¹
same,Distribution volume ratio,[3]; [7],0.99 (0.91 – 1)
same,VT,[3]; [7],0.29 (0.24 – 0.3) mL/cm^3
same,Distribution volume ratio,[3]; [8],0.931 (0.92 – 0.97)
same,VT,[3]; [8],0.265 (0.23 – 0.33) mL/cm^3
same,Distribution volume ratio,[3]; [9],1.14 (1.1 – 1.2)
same,VT,[3]; [9],0.34 (0.3 – 0.39) mL/cm^3
same,Distribution volume ratio,[3]; [10],0.996 (0.93 – 1)
same,VT,[3]; [10],0.284 (0.23 – 0.35) mL/cm^3
same,Distribution volume ratio,[3]; [11],0.844 (0.7 – 0.92)
same,VT,[3]; [11],0.25 (0.21 – 0.29) mL/cm^3
same,Distribution volume ratio,[3]; [12],1.01 (0.95 – 1.1)
same,VT,[3]; [12],0.312 (0.24 – 0.36) mL/cm^3
same,Distribution volume ratio,[3]; [13],0.991 (0.98 – 1)
same,VT,[3]; [13],0.3 (0.26 – 0.31) mL/cm^3
same,time of peak concentration in the brain,[3]; all subjects,around 1 min
same,extraction across the blood–brain barrier (first-pass extraction),"[3]; healthy subjects, from K1 of the 2TC model",approximately 1%
same,estimated median VT,"[3]; striatum (lowest ROI), 2TC model",0.16 mL cm^−3
same,estimated median VT,"[3]; thalamus (highest ROI), 2TC model",0.38 mL cm^−3
same,share of activity in a typical ROI that came from blood,[3]; tissue TAC minus whole-blood radioactivity curve,approximately 20%
same,parent in the brain,[4],94%
same,plasma free fraction,[5],approximately 3%
